From publication PMC5071873, “The Effects of Puerarin on Rat Ventricular Myocytes and the Potential Mechanism” (Scientific Reports, 2016)

Columns and labels:
Kir2.1 = target: T1, Kir2.1 (Homo sapiens, UniProt P63252); test: Whole-cell patch clamp of Kir2.1 currents (ramp voltage protocol) in transfected HEK293 cells; assay type: cell-based
T1 construct: expressed in transfected cells; host or cells: HEK293
T1 sequence (P63252 1-427): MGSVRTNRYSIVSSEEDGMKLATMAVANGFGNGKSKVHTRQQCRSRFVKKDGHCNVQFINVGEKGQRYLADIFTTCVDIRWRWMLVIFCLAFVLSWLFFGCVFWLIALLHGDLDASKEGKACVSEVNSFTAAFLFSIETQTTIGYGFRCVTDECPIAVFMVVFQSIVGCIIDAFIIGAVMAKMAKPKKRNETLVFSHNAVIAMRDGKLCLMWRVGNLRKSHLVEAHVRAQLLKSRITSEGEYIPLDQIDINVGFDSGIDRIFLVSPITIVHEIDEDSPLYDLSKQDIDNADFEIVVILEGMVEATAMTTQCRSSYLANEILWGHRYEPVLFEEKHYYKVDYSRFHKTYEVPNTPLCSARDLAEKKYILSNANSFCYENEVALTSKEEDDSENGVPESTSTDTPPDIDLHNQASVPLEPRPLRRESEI
Protocol: (§1) The Tyrode’s solution contained (mM): 126 NaCl, 5.4 KCl, 1.8 CaCl2, 1 MgCl2, 0.33 NaH2PO4, 10 HEPES and 10 glucose, pH 7.4 (adjusted with NaOH). The Ca^2+-free Tyrode’s solution was prepared by removing CaCl2 from the Tyrode’s solution. The Kreb’s solution used for cell storage contained (mM): 70 glutamic acid, 30 KCl, 15 taurine, 0.5 MgCl2, 10 KH2PO4, 0.5 EGTA, 10 HEPES, 10 glucose, and 1% albumin, pH 7.4 (adjusted with KOH). The enzyme solution used for the rat cardiomyocyte isolation contained 0.08 g/L collagenase (type II) and 1.0 g/L BSA in Kreb’s solution. For action potential recording on cardiomyocyte, the pipette solution contained (mM): 100 potassium aspartate, 30 KCl, 1 MgCl2, 5 Mg-ATP, 5 EGTA, 5 HEPES, pH 7.3 (adjusted with KOH); the Tyrode’s solution was used as the standard bath solution. For whole-cell recording of IKs on myocytes, the pipette solution contained (mM): 125 potassium aspartate, 20 KCl, 1 MgCl2, 5 Mg-ATP, 10 EGTA, 5 HEPES, pH 7.3 (adjusted with KOH); the bath solution contained (mM): 132 NaCl, 4 KCl, 1.8 CaCl2, 1.2 MgCl2, 10 HEPES, 5 glucose, pH 7.4 (adjusted with NaOH). 3 μM nifedipine and 5 μM E-4031 were used to block the calcium current and IKr, respectively. For whole-cell recording on HEK-293 cells, the pipette solution contained (mM): 140 KCl, 2 MgCl2, 10 HEPES, 0.1 EGTA, 4 K2-ATP, pH 7.3 (adjusted with KOH); the bath solution contained (mM): 120 NaCl, 5 KCl, 1.5 CaCl2, 1 MgCl2, 10 HEPES, 10 glucose, pH 7.4 (adjusted with NaOH). For single-channel recording, the pipette solution (extracellular) contained (mM): 145 KCl, 10 HEPES, 10 glucose, pH 7.4 (adjusted with KOH); the bath solution (intracellular) contained (mM): 145 KCl, 1.2 MgCl2, 10 HEPES, 0.1 EGTA, pH 7.38 (adjusted with KOH).
Cell suspensions were transferred into a chamber on the stage of a Nikon Eclipse Ti inverted microscope (Tokyo, Japan). The whole-cell recordings were performed using isolated single ventricular myocytes. Patch electrodes were pulled from a horizontal microelectrode puller (P-1000, Sutter Instrument Co, USA) and fire polished to final tip resistance of 4.0–8.0 MΩ when filled with internal solutions. Signals were amplified with an Axopatch 200B amplifier (Axon Instruments, USA) and filtered at 1 kHz. The pCLAMP 9.0 software was used to generate current and voltage clamp protocols, acquire data, and analyse the current traces. The whole-cell series resistance was compensated to more than 80%. All of the experiments were performed at room temperature (22 ± 1 °C). The whole-cell IK1 was elicited by a ramp voltage protocol from −140 to + 40 mV in 1 s, or at a 0 mV holding potential to test potentials from −140 to + 40 mV in 10 mV increments. The IK1 was calculated as the difference between the peak inward current and the holding current level. The whole-cell Kv7.1/IKs were elicited from a −30 mV holding potential to test potentials from −80 to + 40 mV in 10 mV increments.
Human Kir2.1 cDNA, Kir2.3 cDNA, Kv7.1 cDNA and KCNE1 cDNA, was cloned in Human Embryonic Kidney 293 cells, respectively. In some cases, Kv7.1 cDNA and KCNE1 cDNA were simultaneously cloned in Human Embryonic Kidney 293 cells.

Kir2.3 = target: T2, Kir2.3 (Homo sapiens, UniProt P48050); test: Whole-cell patch clamp of Kir2.3 currents (ramp voltage protocol) in transfected HEK-293 cells; assay type: cell-based
T2 sequence (P48050 1-445): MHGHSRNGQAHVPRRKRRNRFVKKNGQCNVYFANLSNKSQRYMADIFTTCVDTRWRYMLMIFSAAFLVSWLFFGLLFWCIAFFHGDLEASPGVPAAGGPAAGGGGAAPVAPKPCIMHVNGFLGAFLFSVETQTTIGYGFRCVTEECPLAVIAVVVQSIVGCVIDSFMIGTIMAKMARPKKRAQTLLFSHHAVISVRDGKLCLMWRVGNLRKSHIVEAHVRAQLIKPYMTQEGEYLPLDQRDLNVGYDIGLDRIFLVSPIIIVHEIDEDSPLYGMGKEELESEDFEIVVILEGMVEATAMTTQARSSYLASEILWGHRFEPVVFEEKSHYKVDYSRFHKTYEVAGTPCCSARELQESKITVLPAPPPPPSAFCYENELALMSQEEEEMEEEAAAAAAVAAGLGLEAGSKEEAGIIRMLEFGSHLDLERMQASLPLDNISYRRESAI
Protocol: as §1, with “3 μM nifedipine and 5 μM E-4031 were used to block the calcium current and IKr, respectively. For whole-cell recording on HEK-293 cells, the pipette solution contained (mM): 140 KCl, 2 MgCl2, 10 HEPES, 0.1 EGTA, 4 K2-ATP, pH 7.3 (adjusted with KOH); the bath solution contained (mM): 120 NaCl, 5 KCl, 1.5 CaCl2, 1 MgCl2, 10 HEPES, 10 glucose, pH 7.4 (adjusted with NaOH). For single-channel recording, the pipette solution (extracellular) contained (mM): 145 KCl, 10 HEPES, 10 glucose, pH 7.4 (adjusted with KOH); the bath solution (intracellular) contained (mM): 145 KCl, 1.2 MgCl2, 10 HEPES, 0.1 EGTA, pH 7.38 (adjusted with KOH).” left out
Cell suspensions were transferred into a chamber on the stage of a Nikon Eclipse Ti inverted microscope (Tokyo, Japan). […] The IK1 was calculated as the difference between the peak inward current and the holding current level. […]

**Q.** Which “effect on Kir2.1 currents at low concentrations” value (Kir2.1; 10 μM, 1 mM (so in the source)) does the source give for `O=c1c(-c2ccc(O)cc2)coc2c([C@@H]3O[C@H](CO)[C@@H](O)[C@H](O)[C@H]3O)c(O)ccc12` [Puerarin, 8-c-glucoside of daidzein] here?
**A.** little effect

**Q.** What about the “saturation dosage, inhibition of Kir2.1” value (Kir2.1; HEK293) of the same molecule?
**A.** 50 mM

**Q.** And the “maximal inhibitory effect upon Kir2.1” value (Kir2.1; HEK293, n = 5 each point)?
**A.** 53.11 ± 1.84%

**Q.** And the IC50 (Kir2.1; HEK293, non-linear Hill fit, n = 5 each point, read-out: IC50, inhibition of Kir2.1 currents)?
**A.** 1270 µM

**Q.** And the “Hill coefficient, inhibition of Kir2.1” value (Kir2.1; non-linear Hill fit)?
**A.** 0.990

**Q.** And the “effect on Kir2.3 currents at low concentrations” value (Kir2.3; 10 μM, 100 μM, 1 mM)?
**A.** less effect

**Q.** And the “Hill coefficient, inhibition of Kir2.3” value (Kir2.3; non-linear Hill fit)?
**A.** 0.984
